# In PubChem BioAssay (NCI):
#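 Growth conditions: 96-well plates. Treatment: test compound, 48 hours, 5 concentrations. Analysis: linear interpolation between bracketing concentrations; unreached endpoints set to highest concentration. TGI denotes the concentration required for complete inhibition of growth.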
# Legend:
# Assay in all cases: growth of human tumour cells (NCI), 48 h
# [1] = test system: OVCAR-8 ovarian
# [2] = test system: NCI-H226 lung
# [3] = test system: CAKI-1 renal
# [4] = test system: HOP-62 NSCLC
# [5] = test system: A549 NSCLC
# [6] = test system: SN12C renal
# [7] = test system: HT29 colon
# [8] = test system: RXF-631 renal
# [9] = test system: NCI-H522 lung
# [10] = test system: UACC-62 melanoma
# [11] = test system: IGROV1 ovarian
# [12] = test system: NCI-H23 lung
# [13] = test system: SW-620 colon
# [14] = test system: KM12 colon
# [15] = test system: DLD-1 colon
# [16] = test system: MALME-3M melanoma
# [17] = test system: OVCAR-5 ovarian
# [18] = test system: UACC-257 melanoma
# [19] = test system: HOP-18 NSCLC
# [20] = test system: SK-MEL-2 melanoma
# [21] = test system: SNB-78 CNS
# [22] = test system: SNB-19 CNS
# [23] = test system: K-562 leukemia
# [24] = test system: HL-60(TB) leukemia
# [25] = test system: LXFL 529 NSCLC
# [26] = test system: 786-0 renal
# [27] = test system: SF-539 CNS
# [28] = test system: SNB-75 CNS
# [29] = test system: SK-OV-3 ovarian
# [30] = test system: COLO 205 colon
# [31] = test system: LOX IMVI melanoma
# [32] = test system: RXF 393 renal
# [33] = test system: UO-31 renal
# [34] = test system: HOP-92 NSCLC
# [35] = test system: EKVX NSCLC
# [36] = test system: DMS 114 small cell lung
# [37] = test system: U251 CNS
# [38] = test system: MOLT-4 leukemia
# [39] = test system: TK-10 renal
# [40] = test system: SK-MEL-28 melanoma
# [41] = test system: A498 renal
# [42] = test system: DMS 273 small cell lung
# [43] = test system: CCRF-CEM leukemia
# [44] = test system: HCT-116 colon
# [45] = test system: M19-MEL melanoma
# [46] = test system: SK-MEL-5 melanoma
# [47] = test system: M14 melanoma
# [48] = test system: HCC-2998 colon
# [49] = test system: OVCAR-4 ovarian
# [50] = test system: KM20L2 colon
# [51] = test system: SF-295 CNS
# [52] = test system: SR leukemia
# [53] = test system: OVCAR-3 ovarian
# [54] = test system: SF-268 CNS
# [55] = test system: XF 498 CNS
# [56] = test system: ACHN renal
# [57] = test system: NCI-H460 lung
# [58] = test system: RPMI-8226 leukemia
# [59] = test system: HCT-15 colon
compound,measurement,setting,value
NC(=O)c1ncn2c1NCC1OC2C(O)C1O (stereo not given),TGI,[1],> 100 µM
same,TGI,[2],> 100 µM
same,TGI,[3],> 100 µM
same,TGI,[4],> 100 µM
same,TGI,[5],> 100 µM
same,TGI,[6],> 100 µM
same,TGI,[7],> 100 µM
same,TGI,[8],> 100 µM
same,TGI,[9],> 100 µM
same,TGI,[10],> 100 µM
same,TGI,[11],> 100 µM
same,TGI,[12],> 100 µM
same,TGI,[13],> 100 µM
same,TGI,[14],> 100 µM
same,TGI,[15],> 100 µM
same,TGI,[16],> 100 µM
same,TGI,[17],> 100 µM
same,TGI,[18],> 100 µM
same,TGI,[19],> 100 µM
same,TGI,[20],> 100 µM
same,TGI,[21],> 100 µM
same,TGI,[22],> 100 µM
same,TGI,[23],> 100 µM
same,TGI,[24],> 100 µM
same,TGI,[25],> 100 µM
same,TGI,[26],> 100 µM
same,TGI,[27],> 100 µM
same,TGI,[28],> 100 µM
same,TGI,[29],> 100 µM
same,TGI,[30],> 100 µM
same,TGI,[31],> 100 µM
same,TGI,[32],> 100 µM
same,TGI,[33],> 100 µM
same,TGI,[34],> 100 µM
same,TGI,[35],> 100 µM
same,TGI,[36],> 100 µM
same,TGI,[37],> 100 µM
same,TGI,[38],> 100 µM
same,TGI,[39],> 100 µM
same,TGI,[40],> 100 µM
same,TGI,[41],> 100 µM
same,TGI,[42],> 100 µM
same,TGI,[43],> 100 µM
same,TGI,[44],> 100 µM
same,TGI,[45],> 100 µM
same,TGI,[46],> 100 µM
same,TGI,[47],> 100 µM
same,TGI,[48],> 100 µM
same,TGI,[49],> 100 µM
same,TGI,[50],> 100 µM
same,TGI,[51],> 100 µM
same,TGI,[52],> 100 µM
same,TGI,[53],> 100 µM
same,TGI,[54],> 100 µM
same,TGI,[55],> 100 µM
same,TGI,[56],> 100 µM
COC(=O)C(C(=O)C(=O)Nc1ccc(Br)cc1)c1nc2ccc(Cl)cc2[nH]c1=O (stereo not given),TGI,[1],> 100 µM
same,TGI,[2],> 100 µM
same,TGI,[3],> 100 µM
same,TGI,[4],> 100 µM
same,TGI,[5],> 100 µM
same,TGI,[6],> 100 µM
same,TGI,[7],> 72.2 µM
same,TGI,[8],> 100 µM
same,TGI,[9],> 100 µM
same,TGI,[10],> 100 µM
same,TGI,[11],> 100 µM
same,TGI,[12],> 100 µM
same,TGI,[13],> 41.4 µM
same,TGI,[14],> 100 µM
same,TGI,[15],> 100 µM
same,TGI,[16],> 100 µM
same,TGI,[17],> 100 µM
same,TGI,[18],> 100 µM
same,TGI,[19],> 100 µM
same,TGI,[20],> 100 µM
same,TGI,[21],> 100 µM
same,TGI,[22],> 100 µM
same,TGI,[23],> 100 µM
same,TGI,[24],> 100 µM
same,TGI,[25],> 100 µM
same,TGI,[26],> 100 µM
same,TGI,[27],> 100 µM
same,TGI,[28],> 100 µM
same,TGI,[29],> 100 µM
same,TGI,[30],> 61.3 µM
same,TGI,[31],> 100 µM
same,TGI,[32],> 100 µM
same,TGI,[33],> 100 µM
same,TGI,[34],> 100 µM
same,TGI,[35],> 100 µM
same,TGI,[57],> 100 µM
same,TGI,[36],> 100 µM
same,TGI,[37],> 100 µM
same,TGI,[38],> 100 µM
same,TGI,[39],> 100 µM
same,TGI,[40],> 100 µM
same,TGI,[41],> 100 µM
same,TGI,[42],> 100 µM
same,TGI,[58],> 100 µM
same,TGI,[43],> 100 µM
same,TGI,[44],> 100 µM
same,TGI,[45],> 100 µM
same,TGI,[46],> 100 µM
same,TGI,[47],> 100 µM
same,TGI,[48],> 100 µM
same,TGI,[49],> 71.3 µM
same,TGI,[50],> 100 µM
same,TGI,[51],> 100 µM
same,TGI,[52],> 100 µM
same,TGI,[53],> 100 µM
same,TGI,[59],> 55.9 µM
same,TGI,[54],> 100 µM
same,TGI,[55],> 100 µM
same,TGI,[56],> 100 µM
